Publication PMC6600388 (2019)
Like-named read-outs stand apart in the source and are kept apart here. Non-standard residues stand in square brackets, D forms with d. Residues, ends and D or L forms follow the SMILES beside them. βAla = NCCC(=O)O

Tested on: human red blood cells
[1] = read-out: RBC Lysis IC50, pH 5.5, pH 5.5
[2] = read-out: RBC Lysis IC50, pH 7.4, pH 7.4

CC[C@H](C)[C@H](NC(=O)[C@H](C)NC(=O)[C@H](CCC(=O)O)NC(=O)[C@H](Cc1ccccc1)NC(=O)[C@H](CC(C)C)NC(=O)CNC(=O)[C@@H](N)CS)C(=O)N[C@@H](CCC(=O)O)C(=O)NCC(=O)N[C@@H](Cc1ccccc1)C(=O)N[C@H](C(=O)N[C@@H](CCC(=O)O)C(=O)N[C@@H](CC(N)=O)C(=O)NCC(=O)N[C@@H](Cc1c[nH]c2ccccc12)C(=O)N[C@@H](CCC(=O)O)C(=O)NCC(=O)N[C@@H](CCSC)C(=O)N[C@H](C(=O)N[C@@H](CC(=O)O)C(=O)NCC(=O)N[C@@H](Cc1c[nH]c2ccccc12)C(=O)N[C@@H](Cc1ccc(O)cc1)C(=O)NCC(N)=O)[C@@H](C)CC)[C@@H](C)CC [Peptide 4, reference compound]
IC50 (red cells of human, pH 5.5): 16 µM
IC50 (red cells of human, pH 7.4): > 20 µM

CGLFEAIEGFIENGWEGMIDGWYG(Peg 27)YGRKKRRQRR [Peptide 36f]
IC50 [1]: 28 µM
IC50 [2]: > 100 µM

CC[C@H](C)[C@H](NC(=O)[C@H](CCC(=O)O)NC(=O)CNC(=O)[C@H](Cc1ccccc1)NC(=O)[C@H](CC(C)C)NC(=O)CNC(=O)[C@@H](N)CS)C(=O)N[C@@H](CCC(=O)O)C(=O)N[C@@H](CCC(=O)O)C(=O)N[C@@H](Cc1ccccc1)C(=O)N[C@H](C(=O)N[C@@H](CCC(=O)O)C(=O)N[C@@H](CCC(=O)O)C(=O)NCC(=O)N[C@@H](CC(C)C)C(=O)N[C@@H](CCC(=O)O)C(=O)N[C@@H](CC(N)=O)C(=O)N[C@@H](CC(C)C)C(=O)N[C@H](C(=O)N[C@@H](CC(=O)O)C(=O)N[C@@H](Cc1c[nH]c2ccccc12)C(=O)N[C@@H](Cc1c[nH]c2ccccc12)C(=O)N[C@@H](Cc1ccc(O)cc1)C(=O)NCC(=O)N[C@@H](Cc1ccc(O)cc1)C(=O)NCC(=O)N[C@@H](CCCNC(=N)N)C(=O)N[C@@H](CCCCN)C(=O)N[C@@H](CCCCN)C(=O)N[C@@H](CCCNC(=N)N)C(=O)N[C@@H](CCCNC(=N)N)C(=O)N[C@@H](CCC(N)=O)C(=O)N[C@@H](CCCNC(=N)N)C(=O)N[C@@H](CCCNC(=N)N)C(N)=O)[C@@H](C)CC)[C@@H](C)CC [Peptide 65] (H-CGLFGEIEEFIEEGLENLIDWWYGYGRKKRRQRR-NH2)
IC50 (red cells of human, pH 5.5): 3.15 µM
IC50 (red cells of human, pH 7.4): > 20 µM

CGLFEAIEGFIENGWEGMIDGWYG(Peg 6)YGRKKRRQRR [Peptide 36d]
IC50 [1]: 1.22 µM
IC50 [2]: > 10 µM

CC[C@H](C)[C@H](NC(=O)[C@H](CCC(=O)O)NC(=O)CNC(=O)[C@H](Cc1ccccc1)NC(=O)[C@H](CC(C)C)NC(=O)CNC(=O)[C@@H](N)CS)C(=O)N[C@@H](CCC(=O)O)C(=O)N[C@@H](CCC(=O)O)C(=O)N[C@@H](CC(C)C)C(=O)N[C@H](C(=O)N[C@@H](CCC(=O)O)C(=O)N[C@@H](CCC(=O)O)C(=O)NCC(=O)N[C@@H](CC(C)C)C(=O)N[C@@H](CCC(=O)O)C(=O)N[C@@H](CC(N)=O)C(=O)N[C@@H](CC(C)C)C(=O)N[C@H](C(=O)N[C@@H](CC(=O)O)C(=O)N[C@@H](Cc1c[nH]c2ccccc12)C(=O)N[C@@H](Cc1c[nH]c2ccccc12)C(=O)N[C@@H](Cc1ccc(O)cc1)C(=O)NCC(=O)N[C@@H](Cc1ccc(O)cc1)C(=O)NCC(=O)N[C@@H](CCCNC(=N)N)C(=O)N[C@@H](CCCCN)C(=O)N[C@@H](CCCCN)C(=O)N[C@@H](CCCNC(=N)N)C(=O)N[C@@H](CCCNC(=N)N)C(=O)N[C@@H](CCC(N)=O)C(=O)N[C@@H](CCCNC(=N)N)C(=O)N[C@@H](CCCNC(=N)N)C(N)=O)[C@@H](C)CC)[C@@H](C)CC [Peptide 63] (H-CGLFGEIEELIEEGLENLIDWWYGYGRKKRRQRR-NH2)
IC50 (red cells of human, pH 5.5): 3.6 µM
IC50 (red cells of human, pH 7.4): > 20 µM

CC[C@H](C)[C@H](NC(=O)[C@H](CCC(=O)O)NC(=O)CNC(=O)[C@H](Cc1ccccc1)NC(=O)[C@H](CC(C)C)NC(=O)CNC(=O)[C@@H](N)CS)C(=O)N[C@@H](CCC(=O)O)C(=O)N[C@@H](CCC(=O)O)C(=O)N[C@@H](CC(C)C)C(=O)N[C@H](C(=O)N[C@@H](CCC(=O)O)C(=O)N[C@@H](CCC(=O)O)C(=O)NCC(=O)N[C@@H](CC(C)C)C(=O)N[C@@H](CCCCN)C(=O)N[C@@H](CC(N)=O)C(=O)N[C@@H](CC(C)C)C(=O)N[C@H](C(=O)N[C@@H](CC(=O)O)C(=O)N[C@@H](Cc1c[nH]c2ccccc12)C(=O)N[C@@H](Cc1c[nH]c2ccccc12)C(=O)N[C@@H](Cc1ccc(O)cc1)C(=O)NCC(=O)N[C@@H](Cc1ccc(O)cc1)C(=O)NCC(=O)N[C@@H](CCCNC(=N)N)C(=O)N[C@@H](CCCCN)C(=O)N[C@@H](CCCCN)C(=O)N[C@@H](CCCNC(=N)N)C(=O)N[C@@H](CCCNC(=N)N)C(=O)N[C@@H](CCC(N)=O)C(=O)N[C@@H](CCCNC(=N)N)C(=O)N[C@@H](CCCNC(=N)N)C(N)=O)[C@@H](C)CC)[C@@H](C)CC [Peptide 61] (H-CGLFGEIEELIEEGLKNLIDWWYGYGRKKRRQRR-NH2)
IC50 (red cells of human, pH 5.5): 0.97 µM
IC50 (red cells of human, pH 7.4): 8.07 µM

CC[C@H](C)[C@H](NC(=O)[C@H](C)NC(=O)[C@H](CCC(=O)O)NC(=O)[C@H](Cc1ccccc1)NC(=O)[C@H](CC(C)C)NC(=O)CNC(=O)[C@@H](N)CS)C(=O)N[C@@H](CCC(=O)O)C(=O)NCC(=O)N[C@@H](Cc1ccccc1)C(=O)N[C@H](C(=O)N[C@@H](CCC(=O)O)C(=O)N[C@@H](CC(N)=O)C(=O)NCC(=O)N[C@@H](Cc1c[nH]c2ccccc12)C(=O)N[C@@H](CCC(=O)O)C(=O)NCC(=O)N[C@@H](CC(C)C)C(=O)N[C@H](C(=O)N[C@@H](CC(=O)O)C(=O)NCC(=O)N[C@@H](Cc1c[nH]c2ccccc12)C(=O)N[C@@H](Cc1ccc(O)cc1)C(=O)NCC(=O)N[C@@H](Cc1ccc(O)cc1)C(=O)NCC(=O)N[C@@H](CCCNC(=N)N)C(=O)N[C@@H](CCCCN)C(=O)N[C@@H](CCCCN)C(=O)N[C@@H](CCCNC(=N)N)C(=O)N[C@@H](CCCNC(=N)N)C(=O)N[C@@H](CCC(N)=O)C(=O)N[C@@H](CCCNC(=N)N)C(=O)N[C@@H](CCCNC(=N)N)C(N)=O)[C@@H](C)CC)[C@@H](C)CC [Peptide 28g]
IC50 (red cells of human, pH 5.5): 0.71 µM
IC50 (red cells of human, pH 7.4): 2.9 µM

CC[C@H](C)[C@H](NC(=O)[C@H](C)NC(=O)[C@H](CCC(=O)O)NC(=O)[C@H](Cc1ccccc1)NC(=O)[C@H](CC(C)C)NC(=O)CNC(=O)[C@@H](N)CS)C(=O)N[C@@H](CCC(=O)O)C(=O)NCC(=O)N[C@@H](Cc1ccccc1)C(=O)N[C@H](C(=O)N[C@@H](CCC(=O)O)C(=O)N[C@@H](CC(N)=O)C(=O)NCC(=O)N[C@@H](Cc1c[nH]c2ccccc12)C(=O)N[C@@H](CCC(=O)O)C(=O)NCC(=O)N[C@@H](CCSC)C(=O)N[C@H](C(=O)N[C@@H](CC(=O)O)C(=O)NCC(=O)NCC(=O)NCC(=O)NCC(=O)N[C@@H](Cc1ccc(O)cc1)C(=O)NCC(=O)N[C@@H](CCCNC(=N)N)C(=O)N[C@@H](CCCCN)C(=O)N[C@@H](CCCCN)C(=O)N[C@@H](CCCNC(=N)N)C(=O)N[C@@H](CCCNC(=N)N)C(=O)N[C@@H](CCC(N)=O)C(=O)N[C@@H](CCCNC(=N)N)C(=O)N[C@@H](CCCNC(=N)N)C(N)=O)[C@@H](C)CC)[C@@H](C)CC [Peptide 32b] (H-CGLFEAIEGFIENGWEGMIDGGGGYGRKKRRQRR-NH2)
IC50 (red cells of human, pH 5.5): > 10 µM
IC50 (red cells of human, pH 7.4): > 10 µM

CGLFEAIEGFIENGWEGMIDGWYG(Peg11)YGRKKRRQRR [Peptide 36e]
IC50 [2]: > 100 µM

CC[C@H](C)[C@H](NC(=O)[C@H](CCCCN)NC(=O)[C@@H](NC(=O)[C@H](CCC(N)=O)NC(=O)[C@H](CCCNC(=N)N)NC(=O)[C@@H](N)CS)[C@@H](C)CC)C(=O)N[C@@H](Cc1c[nH]c2ccccc12)C(=O)N[C@@H](Cc1ccccc1)C(=O)N[C@@H](CCC(N)=O)C(=O)N[C@@H](CC(N)=O)C(=O)N[C@@H](CCCNC(=N)N)C(=O)N[C@@H](CCCNC(=N)N)C(=O)N[C@@H](CCSC)C(=O)N[C@@H](CCCCN)C(=O)N[C@@H](Cc1c[nH]c2ccccc12)C(=O)N[C@@H](CCCCN)C(=O)N[C@@H](CCCCN)C(N)=O [Peptide 2, reference compound]
IC50 (red cells of human, pH 5.5): > 20 µM
IC50 (red cells of human, pH 7.4): > 20 µM

CC[C@H](C)[C@H](NC(=O)[C@H](CCC(=O)O)NC(=O)CNC(=O)[C@H](Cc1ccccc1)NC(=O)[C@H](CC(C)C)NC(=O)CNC(=O)[C@@H](N)CS)C(=O)N[C@@H](CCC(=O)O)C(=O)N[C@@H](CCC(=O)O)C(=O)N[C@@H](CC(C)C)C(=O)N[C@H](C(=O)N[C@@H](CCC(=O)O)C(=O)N[C@@H](CCC(=O)O)C(=O)NCC(=O)N[C@@H](CC(C)C)C(=O)N[C@@H](CCCCN)C(=O)N[C@@H](CC(N)=O)C(=O)N[C@@H](CC(C)C)C(=O)N[C@H](C(=O)N[C@@H](CC(=O)O)C(=O)N[C@@H](Cc1c[nH]c2ccccc12)C(=O)N[C@@H](Cc1c[nH]c2ccccc12)C(=O)N[C@@H](Cc1ccc(O)cc1)C(=O)NCC(=O)N[C@@H](Cc1ccc(O)cc1)C(=O)NCC(=O)N[C@@H](Cc1c[nH]cn1)C(=O)N[C@@H](CCCCN)C(=O)N[C@@H](CCCCN)C(=O)N[C@@H](Cc1c[nH]cn1)C(=O)N[C@@H](Cc1c[nH]cn1)C(=O)N[C@@H](CCC(N)=O)C(=O)N[C@@H](Cc1c[nH]cn1)C(=O)N[C@@H](CCCNC(=N)N)C(N)=O)[C@@H](C)CC)[C@@H](C)CC [Peptide 62] (H-CGLFGEIEELIEEGLKNLIDWWYGYGHKKHHQHR-NH2)
IC50 (red cells of human, pH 5.5): 1.28 µM
IC50 (red cells of human, pH 7.4): > 20 µM

CC[C@H](C)[C@H](NC(=O)[C@H](Cc1ccccc1)NC(=O)[C@H](CCC(=O)O)NC(=O)[C@H](CCC(=O)O)NC(=O)[C@@H](NC(=O)[C@H](Cc1ccccc1)NC(=O)[C@H](CCC(=O)O)NC(=O)[C@H](Cc1ccccc1)NC(=O)CNC(=O)CCNC(=O)[C@@H](N)CS)[C@@H](C)CC)C(=O)N[C@@H](CCC(=O)O)C(=O)N[C@@H](CC(N)=O)C(=O)NCC(=O)N[C@@H](CC(C)C)C(=O)N[C@@H](CCCCN)C(=O)N[C@@H](CC(N)=O)C(=O)N[C@@H](CC(C)C)C(=O)N[C@H](C(=O)N[C@@H](CC(=O)O)C(=O)N[C@@H](Cc1c[nH]c2ccccc12)C(=O)N[C@@H](Cc1c[nH]c2ccccc12)C(=O)N[C@@H](Cc1ccc(O)cc1)C(=O)NCC(=O)N[C@@H](Cc1ccc(O)cc1)C(=O)NCC(=O)N[C@@H](CCCNC(=N)N)C(=O)N[C@@H](CCCCN)C(=O)N[C@@H](CCCCN)C(=O)N[C@@H](CCCNC(=N)N)C(=O)N[C@@H](CCCNC(=N)N)C(=O)N[C@@H](CCC(N)=O)C(=O)N[C@@H](CCCNC(=N)N)C(=O)N[C@@H](CCCNC(=N)N)C(N)=O)[C@@H](C)CC [Peptide 60] (H-C[βAla]GFEFIEEFIENGLKNLIDWWYGYGRKKRRQRR-NH2)
IC50 (red cells of human, pH 5.5): 1.14 µM
IC50 (red cells of human, pH 7.4): 12.8 µM
